The subject of data set [1] is human MRC-5 fibroblasts. In words: Mammalian cell counter screen (MRC-5). In kind it is cell-based. As to conditions: for SI: selectivity index (EC50 MRC5/EC50 T. brucei). As for the experimental part:
(§1) Drug sensitivity assays with BSF T. b. brucei “single marker” S427 and human MRC-5 fibroblasts were conducted as previously described.[43]
A general note: The purpose of a counterscreen is to sort out artefacts and off-target activity.

Data set [2] is described as follows: Mouse liver microsomal intrinsic clearance. In kind it is in vitro ADME. As for the experimental part: Test compounds (0.5 μM) were incubated with female CD1 mouse liver microsomes (Xenotech LLC; 0.5 mg mL^–1 50 mM potassium phosphate buffer, pH 7.4), and the reaction started with the addition of excess NADPH (8 mg mL^–1 50 mM potassium phosphate buffer, pH 7.4). Immediately, at 0 min, and then at 3, 6, 9, 15, and 30 min, an aliquot (50 μL) of the incubation mixture was removed and mixed with acetonitrile (100 μL) to stop the reaction. The internal standard was added to all samples, the samples were centrifuged to sediment the precipitated protein, and the plates were then sealed prior to UPLC–MS/MS analysis using a Quattro Premier XE (Waters Corporation, USA). XLfit (IDBS, UK) was used to calculate the exponential decay and consequently the rate constant (k) from the ratio of the peak area of the test compound to the internal standard at each time point. The rate of intrinsic clearance (CLint) of each test compound was then calculated using the following calculation [drawing 3] where V (mL mg^–1 protein) is the incubation volume mg^–1 protein added and the microsomal protein yield is taken as 52.5 mg protein g^–1 liver. Verapamil (0.5 μM) was used as a positive control to confirm acceptable assay performance.

In data set [3] the test system is BSF T. b. brucei “single marker” S427. In words: Drug sensitivity assay with bloodstream-form T. brucei. It counts as cell-based. As to conditions: for EC50: mean values, number of replicates in parentheses. As for the experimental part:
as §1

Data set [4] is described as follows: Rat microsomal intrinsic clearance. As to conditions: second value of mouse/rat cell. It counts as in vitro ADME.
Data set [5] in a line: Mammalian cell counter screen (MRC-5). In kind it is cell-based, human. As to conditions: human, MRC-5 fibroblasts; mean values; number of replicates in parentheses. As for the experimental part: as §1

In general, EC50 refers to the midpoint of the concentration-response curve. Regarding “1-(4-Amino-2-((3,4-difluorophenyl)amino)thiazol-5-yl)-2-((2S,6R)-2,6-dimethylmorpholino)ethanone [Compound 63]”, the concentration giving a half-maximal response (EC50) in data set [1] (mean values, number of replicates in parentheses, read-out: MRC-5 EC50) was above 50000 nM; in data set [3] it was 50 nM. In data set [1], this molecule displayed an SI of 1000. The “CLint (mouse)” value in data set [2] came to 8.1 mL·min/g. Further, in data set [4], the “CLint (rat)” value came to 4.9 mL·min/g.
`Nc1nc(NC2CCCCC2)sc1C(=O)C1CCCCC1` [Compound 20, (4-Amino-2-(cyclohexylamino)thiazol-5-yl) (cyclohexyl)methanone] returned an SI in data set [1] of 273. The concentration for a half-maximal effect (EC50) in data set [5] is 41000 nM; in data set [3] (Trypanosoma brucei), 150 nM. Besides, in data set [2], the “CLint (mouse)” value was determined as 8.9 mL·min/g.
For `Nc1nc(NC2CCCCC2)sc1C(=O)c1c(Cl)cccc1Cl` [Compound 21, (4-Amino-2-(cyclohexylamino)thiazol-5-yl)(2,6-dichlorophenyl)methanone], in that order: 34, 4800 nM, 140 nM and 4.1 mL·min/g.
For `Nc1nc(NC2CCCCC2)sc1C(=O)c1ccc(F)cc1` [Compound 22, (4-Amino-2-(cyclohexylamino)thiazol-5-yl)(4-fluorophenyl)methanone], in that order: 420, 21000 nM, 50 nM and 4.9 mL·min/g.
`Nc1nc(NC2CCCCC2)sc1C(=O)c1ccc(C(F)(F)F)cc1` [Compound 23, (4-Amino-2-(cyclohexylamino)thiazol-5-yl)(4-(trifluoromethyl)phenyl)methanone] had an SI in data set [1] of 56. Moreover, the results for the EC50 in data set [5] and in data set [3] (Trypanosoma brucei) were 37000 nM and 660 nM, respectively. For the same molecule, the “CLint (mouse)” value in data set [2] worked out at 1.4 mL·min/g.
For `Nc1nc(NC2CCCCC2)sc1C(=O)c1ccncc1` [Compound 25, (4-Amino-2-(cyclohexylamino)thiazol-5-yl)(pyridine-4-yl)methanone], in that order: 41, 19000 nM, 460 nM and 4.1 mL·min/g.
For the molecule `Nc1nc(NC2CCCCC2)sc1C(=O)c1ccccc1C(F)(F)F` [Compound 28], the SI in data set [1] stood at 5. Besides, the results for the EC50 in data set [5] and in data set [3] (Trypanosoma brucei) were 1900 nM and 390 nM, respectively. In addition, the “CLint (mouse)” value in data set [2] came to 14 mL·min/g.
Take `Nc1nc(NC2CCCCC2)sc1C(=O)c1ccc(F)cc1F` [Compound 29, (4-Amino-2-(cyclohexylamino)thiazol-5-yl)(2,4-difluorophenyl)methanone]: the SI in data set [1] worked out at 128. Further, the concentration giving a half-maximal response (EC50) is 6400 nM in data set [5] and 50 nM in data set [3] (Trypanosoma brucei). For the same molecule, the “CLint (mouse)” value in data set [2] turned out to be 6.5 mL·min/g.
In the same order, the values of `Nc1nc(NC2CCCCC2)sc1C(=O)c1ccc(F)c(F)c1` [Compound 30, (4-Amino-2-(cyclohexylamino)thiazol-5-yl)(3,4-difluorophenyl)methanone] are 840, 42000 nM, 50 nM and 12 mL·min/g.
With `Nc1nc(NC2CCCCC2)sc1C(=O)c1cc(F)cc(F)c1` [Compound 31, (4-Amino-2-(cyclohexylamino)thiazol-5-yl)(3,5-difluorophenyl)methanone], in data set [1], the SI is 19. For the same molecule, the concentration giving a half-maximal response (EC50) turned out to be 3100 nM in data set [5] and 160 nM in data set [3] (Trypanosoma brucei). In addition, the “CLint (mouse)” value in data set [2] came to 3.6 mL·min/g.
Molecule `O=C(c1cnc(NC2CCCCC2)s1)C1CCCCC1` [Compound 32, Cyclohexyl(2-(cyclohexylamino)thiazole-5-yl)methanone] yielded an SI in data set [1] of 3. For the same molecule, the results for the 50% effective concentration (EC50) in data set [5] and in data set [3] (Trypanosoma brucei) were 49000 nM and 18000 nM, respectively. In data set [2], the “CLint (mouse)” value is 15 mL·min/g. Besides, the “reduction (loss, drop off) in potency against T. brucei relative to parent analogue” value in data set [3] (SAR comparison) is above 20 fold.
The molecule `Nc1nc(Nc2ccccc2)sc1C(=O)c1ccc(F)cc1` [Compound 35, (4-Amino-2-(phenylamino)thiazol-5-yl)(4-fluorophenyl)methanone] displayed an SI in data set [1] above 263. For the same molecule, the concentration giving a half-maximal response (EC50) is above 50000 nM in data set [5] and 190 nM in data set [3] (Trypanosoma brucei). In data set [2], the “CLint (mouse)” value came out at 7.3 mL·min/g.
In turn, `CC(C)CC(=O)c1sc(Nc2ccc(F)cc2)nc1N` [Compound 36, 1-(4-Amino-2-((4-fluorophenyl)amino)thiazol-5-yl)-3-methylbutan-1-one] returned an SI in data set [1] above 455. Also, the EC50 is above 50000 nM in data set [5] and 110 nM in data set [3] (Trypanosoma brucei). For the same molecule, in data set [2], the “CLint (mouse)” value worked out at 8.0 mL·min/g.
`COC(C)(C)CC(=O)c1sc(Nc2ccc(F)c(F)c2)nc1N` [Compound 39, 1-(4-Amino-2-((3,4-difluorophenyl)amino)thiazol-5-yl)-3-methoxy-3-methylbutan-1-one] returned an SI in data set [1] of 238. The concentration for a half-maximal effect (EC50) in data set [5] is above 50000 nM; in data set [3] (Trypanosoma brucei) it was 210 nM. Moreover, in data set [2], the “CLint (mouse)” value stood at 6.1 mL·min/g.
In the same order, the values of `CC(C)(C)CC(=O)c1sc(Nc2ccc(F)c(F)c2)nc1N` [Compound 40, 1-(4-Amino-2-((3,4-difluorophenyl)amino)thiazol-5-yl)-3,3-dimethylbutan-1-one] are above 333, above 50000 nM, 150 nM and 4.6 mL·min/g.
In the case of `CC(C)OCC(=O)c1sc(Nc2ccc(F)c(F)c2)nc1N` [Compound 42, 1-(4-Amino-2-((3,4-difluorophenyl)amino)thiazol-5-yl)-2-isopropoxyethanone], in data set [1], the SI is 2500. Also, the figures for the EC50 in data set [5] and in data set [3] (Trypanosoma brucei) were above 50000 nM and 20 nM, respectively. For the same molecule, the “CLint (mouse)” value in data set [2] is 9.3 mL·min/g. In data set [3] (SAR comparison), the “improvement in activity against T. brucei relative to parent analogue” value is 10 fold. Besides, the “CLint (rat)” value in data set [4] turned out to be 3.6 mL·min/g.
In data set [1], `Nc1nc(Nc2ccc(F)c(F)c2)sc1C(=O)COC1CCC1` [Compound 46, 1-(4-Amino-2-((3,4-difluorophenyl)amino)thiazol-5-yl)-2-cyclobutoxyethanone] gave an SI of 2500. Moreover, the EC50 is above 50000 nM in data set [5] and 20 nM in data set [3] (Trypanosoma brucei). The “CLint (mouse)” value in data set [2] stood at 9 mL·min/g. Moreover, in data set [4], the “CLint (rat)” value is 8.2 mL·min/g.
In the same order, the values of `Nc1nc(Nc2ccc(F)c(F)c2)sc1C(=O)COC1CC(F)(F)C1(F)F` (stereo not shown) [Compound 47, 1-(4-Amino-2-((3,4-difluorophenyl)amino)thiazol-5-yl)-2-(2,2,3,3-tetrafluorocyclobutoxy)ethanone] are 2900, 29000 nM, 10 nM, 5.2 mL·min/g and 4.4 mL·min/g.
As to `CC(OCC(=O)c1sc(Nc2ccc(F)c(F)c2)nc1N)C(F)(F)F` (stereo not shown) [Compound 50, 1-(4-Amino-2-((3,4-difluorophenyl)amino)thiazol-5-yl)-2-((1,1,1-trifluoropropan-2-yl)oxy)ethanone], the SI in data set [1] is given as 8333. Moreover, the EC50 in data set [5] was above 50000 nM; in data set [3] (Trypanosoma brucei), 6 nM. Further, the “CLint (mouse)” value in data set [2] turned out to be 7.4 mL·min/g. Besides, the “CLint (rat)” value in data set [4] is 2.9 mL·min/g.
`CC(OCC(=O)c1sc(Nc2ccc(C(F)(F)F)cc2)nc1N)C(F)(F)F` (stereo not shown) [Compound 52, 1-(4-Amino-((4-(trifluoromethyl)phenyl)amino)thiazol-5-yl)-2-((1,1,1-trifluoropropan-2-yl)oxy)ethanone]: the SI in data set [1] is given as 543. Also, the half-maximal effective concentration (EC50) in data set [5] is 38000 nM; in data set [3] (Trypanosoma brucei), 70 nM. Moreover, in data set [2], the “CLint (mouse)” value is 2.3 mL·min/g. Further, the “reduction (loss, drop off) in potency against T. brucei relative to parent analogue” value in data set [3] (SAR comparison) worked out at 10 fold. In addition, the “CLint (rat)” value in data set [4] stood at 0.5 mL·min/g.
`CC(OCC(=O)c1sc(Nc2ccc3c(c2)OC(F)(F)O3)nc1N)C(F)(F)F` (stereo not shown) [Compound 53, 1-(4-Amino-2-((2,2-difluorobenzo[d][1,3]dioxol-5-yl)amino)thiazol-5-yl)-2-((1,1,1-trifluoropropan-2-yl)oxy)ethan-1-one] yielded an SI in data set [1] of 1667. Further, the EC50 in data set [5] is above 50000 nM; in data set [3] (Trypanosoma brucei) it was 30 nM. The “CLint (mouse)” value in data set [2] was 5 mL·min/g. Further, in data set [4], the “CLint (rat)” value stood at 1.2 mL·min/g.
Regarding `COc1ccc(Nc2nc(N)c(C(=O)COC(C)C(F)(F)F)s2)cn1` (stereo not shown) [Compound 57, 1-(4-Amino-2-((6-methoxypyridin-3-yl)amino)thiazol-5-yl)-2-((1,1,1-trifluoropropan-2-yl)oxy)ethanone], in data set [1], the SI is listed as 714. Besides, the values for the EC50 in data set [5] and in data set [3] (Trypanosoma brucei) were above 50000 nM and 70 nM, respectively. For the same molecule, in data set [2], the “CLint (mouse)” value is 9.0 mL·min/g. Also, the “CLint (rat)” value in data set [4] stood at 2.4 mL·min/g.
For `Nc1nc(Nc2ccc(F)c(F)c2)sc1C(=O)CN1CCOCC1` [Compound 62, 1-(4-Amino-2-((3,4-difluorophenyl)amino)thiazol-5-yl)-2-morpholinoethanone], the EC50 in data set [5] is above 50000 nM; in data set [3] (Trypanosoma brucei) it was 40 nM. The “CLint (mouse)” value in data set [2] came to 4.7 mL·min/g. The “CLint (rat)” value in data set [4] was determined as 9 mL·min/g.
